Reference: patent publication US20240327372A1, “PREPARATION OF PHENE[…] […] STEREOISOMERS THEREOF AND PRECURSORS THEREOF” (priority 2022, published 2024)

Columns and labels:
NET = test: [3H]Norepinephrine uptake inhibition in rat brain synaptosomes; assay type: biochemical; settings: NE
Experimental: Materials used were: Neurotransmitters [3H]5-HT (PerkinElmer, NET498001MC) [^3H]Dopamine (PerkinElmer, NET673250UC) [^3H]Norepinephrine (PerkinElmer, NET377250UC); Test Compounds Racemic methylone HCl (Merck, M-140); (R)-methylone HCl (Pisgah Labs); (S)-methylone HCl (Pisgah Labs); Reference Compounds Citalopram (Tocris Bioscience 1427). JHW007 (Tocris Bioscience 4351). Nomifensine (Abcam ab146004).
Synaptosomes were prepared from Sprague Dawley (200-250 g) rat brain regions (hippocampus for NE, striatum for DA and midbrain for 5-HT) using standard protocols. Tissues were dissected, added to sucrose buffer (0.32 M), homogenized with a dounce-homogenizer and centrifuged at 100×g to remove cells and debris. Supernatant was collected and centrifuged 17,000×g for 10 minutes at 4° C. to pellet the synaptosomes. The pellet was resuspended in fresh assay buffer.
Uptake assays were carried out in 96-well plates in a final volume of 250 μL per well. To each well was added 150 μL synaptosomes, 50 μL test, non-specific compound or buffer alone. The plate was incubated at 30° C. for 30 minutes with gentle agitation. 50 μL radiolabeled neurotransmitter in buffer was then added to each well to initiate the uptake. The plate was incubated at 30° C. for a further 5 minutes with gentle agitation. The incubation was stopped by vacuum filtration onto presoaked GF/C filters using a 96-well FilterMate™ harvester, followed by 3 washes with ice-cold wash buffer. Filters were then dried under a warm air stream, sealed in polyethylene, scintillation cocktail added, and the radioactivity counted in a Wallac® TriLux 1450 MicroBeta counter.
For each concentration of drug, non-specific uptake was subtracted from total uptake to give specific uptake. Data was fitted using the non-linear curve fitting routines in Prism® (Graphpad Software Inc) to determine IC50.

SERT = SERT (Rattus norvegicus (Rat), UniProt P31652); test: 5-HT release study; assay type: biochemical
[1] = target: norepinephrine transporter (NET); test: Competition radioligand binding, [3H]Nisoxetine, rat brain membranes; settings: for IC50 / Ki: NE transporter; for Ki: Cheng-Prusoff
From the text: (§1) Rat brain (Sprague Dawley, 200-250 g) synaptosomes were isolated from midbrain and hindbrain for serotonin transporter assays, striatum for dopamine transporter assays, and hippocampus plus overlying occipital cortex for norepinephrine transporter assays. Radioligands used were: [^3H]Citalopram 81.4 Ci/mmol (PerkinElmer NET1039250UC; Lot No. 2960876). [^3H]WIN35428 82.8 Ci/mmol (PerkinElmer NET1033250UC; Lot No. 2891473). [^3H]Nisoxetine 79.2 Ci/mmol (PerkinElmer NET1084250UC; Lot No. 2970324). Non-specific compounds used were: Citalopram (Tocris Bioscience 1427). JHW007 (Tocris Bioscience 4351). Nomifensine (Abcam ab146004). Test Compounds for the study were: racemic methylone HCl; (R)-methylone HCl; (S)-methylone HCl.
(§2) For membrane preparations, rat brains were dissected, tissue was added to ice-cold lysis buffer (50 mM Tris HCl; 5 mM MgCl2; 5 mM EDTA; protease inhibitor cocktail) and homogenized. The homogenate was centrifuged at 100×g for 2 minutes and the supernatant divided into polypropylene Eppendorf tubes. The supernatants were centrifuged at 17,000×g for 10 minutes at 4° C. to re-pellet the cell lysate. The pellet was resuspended in fresh wash buffer (50 mM Tris-HCl; 5 mM MgCl2; 5 mM EDTA) and centrifuged a third time at 17,000×g for 10 minutes at 4° C. The pellet was resuspended in wash buffer containing 10% sucrose as a cryoprotectant, divided into aliquots (0.3 mL) and stored at −80° C. A sample of the homogenate was analyzed for protein content using the MERCK® BCA assay. On the day of the assay, the membrane preparation was thawed and the pellet resuspended in final assay buffer.
(§3) Competition binding assays were carried out in 96-well polypropylene plates in a final volume of 250 μL per well. To each well was added 150 μL membranes, 50 μL of test compound, non-specific compound or buffer, and 50 μL radioligand solution in buffer. The plate was incubated at 30° C. for 90 minutes with gentle agitation. The incubation was stopped by vacuum filtration onto presoaked (wash buffer with PEI) GF/C filters using a 96-well FILTERMATE™ harvester, followed by 5 washes with ice-cold wash buffer. Filters were then dried under a warm air stream, sealed in polyethylene, scintillation cocktail added, and the radioactivity counted in a WALLAC® TriLux 1450 MicroBeta counter. For each concentration of drug, non-specific binding was subtracted from total binding to give specific binding. Data was fitted using the non-linear curve fitting routines in PRISM® (Graphpad Software Inc) to determine IC50. Ki was subsequently calculated using the ChengPrusoff equation.

[2] = target: dopamine transporter (DAT) (Rattus norvegicus (Rat), UniProt P23977); test: Competition radioligand binding, [3H]WIN35428, rat brain membranes; settings: for IC50 / Ki: DA transporter; for Ki: Cheng-Prusoff
From the text: as §1, §2, §3

| SMILES | IC50 (NET) | EC50 (SERT) | IC50 [1] | Ki [1] | Potency relative to racemic methylone ([1]; NET binding) | IC50 [2] | Ki [2] | Potency relative to racemic methylone ([2]; DAT binding) |
| --- | --- | --- | --- | --- | --- | --- | --- | --- |
| CN[C@@H](C)C(=O)c1ccc2c(c1)OCO2 [(S)-methylone] | 0.316 µM | 1.18 µM | 7.12 µM | 3.37 µM | nearly two-fold less potent | 8.34 µM | 4.14 µM |  |
| CN[C@H](C)C(=O)c1ccc2c(c1)OCO2 [(R)-methylone] | 0.242 µM |  | 4.67 µM | 2.19 µM |  | 24.7 µM | 12.3 µM | approximately three-fold less potent |
